Consider one molecule from paper PMC8354611, “Orientin mediates protection against MRSA-induced pneumonia by inhibiting Sortase A” (Virulence, 2021).

Where “and” joins values, the source holds several entries; their conditions need not be identical. Equal entries are not always repeated. Marks after values point to notes of the source that are not given here.

The target of test [1] is T1, E105A (Staphylococcus aureus, UniProt Q2FV99, E105A).
T1 construct: 6xHis (N); made in house; host or cells: E. coli BL21(DE3), pET28a
Description: Fluorescence quenching assay, SrtA mutant E105A. The format is binding, S. aureus USA300. How it is done:
(§1) The sequence of srtA from S. aureus USA300 was retrieved from the GenBank database. The srtA gene lacking the transmembrane domain (N1–59) was amplified using PCR. The PCR product was then digested and cloned in the BamHI/XhoI restriction sites of the pET28a vector, yielding pET28a-srtA. The site-directed mutagenesis of T93A-SrtA, E105A-SrtA, and C184A-SrtA was conducted using pET28a-srtA using a Multi-Site Mutagenesis Kit (Transgen, Beijing, China). The expression vector was then transformed into the BL21(DE3) expression host, and the bacteria were cultured in BHI medium supplemented with kanamycin (50 µg/mL) at 37°C. In addition, isopropyl-β-D-thiogalactoside (1 mM) was used to induce recombinant SrtA for 4 h at 16°C. Whole-cell lysates of bacteria were prepared through ultrasonic crushing. Recombinant SrtAΔN59 or its mutants were purified using the 6 × His/Ni-NTA system refer to a previous study.
(§2) The binding constants (KA) of orientin to SrtA were determined using the fluorescence quenching assay. The spectra were recorded in the wavelength interval of 280–400 nm. The protocols used to perform the measurements have previously been described [[31–33]].

Test [2] deals with D170A. In words: Fluorescence quenching assay, SrtA mutant D170A. The test is classed as binding, S. aureus USA300.
For test [3], the system named is Staphylococcal protein A (SpA) anchoring to the cell wall. Description: FITC-IgG binding to Staphylococcal protein A (SpA). The test is classed as cell-based, S. aureus. The settings on record: 200 µM orientin, compared to the WT group. How it is done: Overnight culture of S. aureus and S. aureus ΔsrtA was diluted 1:1000 in TSB medium, and different concentrations of orientin (0–200 µM) were added to the culture with shaking at 37°C until the logarithmic growth phase. The bacteria collected by centrifugation were washed thrice with PBS, after which the bacterial precipitate was resuspended with 50 µL of 1:200 diluted FITC-labeled rabbit IgG (Solarbio, Beijing, China). Then, the bacterial precipitate was incubated at ambient temperature for 30 min, and the harvested bacteria were rinsed thrice by PBS. Then, the bacteria were resuspended in 100 µL PBS and added to a black 96-well plate. The Multimode Microplate Reader (Tecan, Spark 20 M) was used to measure the fluorescence intensity at 490 nm for excitation and 520 nm for emission.

Test [4] concerns S. aureus USA300. Description: Broth microdilution MIC. To be noted: Staphylococcus aureus, USA300, 16 h. The test is classed as cell-based. How it is done:
(§3) The broth microdilution method was performed to determine the MIC of orientin for S. aureus USA300 as previously described. Briefly, orientin was diluted two-fold serially in a 96-well plate at concentrations ranging from 2 to 1024 µg/mL, followed by inoculation with S. aureus USA300 (10^6 CFU/mL) and incubation at 37°C for 16 h. After incubation, the absorbance (OD) value at 600 nm was measured. For the growth curve experiment, the overnight bacterial culture was diluted in fresh BHI (1:100) with various concentrations of orientin (0–200 µM). S. aureus ΔsrtA was used as the control group. Each sample was cultured at 37°C, and the OD600 was measured at 1 h intervals.
On the technique in general: Dilution methods test growth across graded concentrations, often in twofold steps.

Test [5] deals with S. aureus biofilm. Description: Crystal violet biofilm assay. The format is cell-based. To be noted: 200 µM orientin, compared to the WT group (untreated S. aureus). How it is done: After overnight culturing, S. aureus was diluted using fresh BHI by 1:100, and different concentrations of orientin ranging from 0 to 200 μM were added with shaking at 37°C to OD600 of 0.6. The bacterial culture (5 µL) was then added to BHI broth containing 1% glucose to a final volume of 200 µL and continue cultured for 18 h. Then, the medium was discarded carefully and washed three times with PBS. Then, the biofilms were stained with a 0.1% (w/v) crystal violet solution for 20 min at ambient temperature conditions. The crystal violet solution was discarded, and the wells were washed thrice with sterile PBS. After drying the plates, 95% ethanol was added into each well, and the absorbance at 570 nm was measured.

Test [6] deals with expression of SrtA. Description: Western blot analysis of SrtA expression. The test is classed as cell-based, S. aureus. To be noted: orientin 0, 25, 50, 100 or 200 µM. How it is done:
An equal amount of protein extract was separated using SDS-PAGE, followed by transfer to the polyvinylidene difluoride (PVDF) membrane (GE Healthcare, UK). The membrane was incubated in 5% BSA overnight at 4°C. After washing with TBST (TBS + 1‰ Tween 20), the membrane was incubated with rabbit anti-SrtA polyclonal antibody (1:3000) at room temperature. After incubation for 2 h, the membrane was washed thrice and incubated with HRP-conjugated goat anti-rabbit IgG (diluted 1:10,000 in TBST) for 2 h. After washing thrice, the membrane was incubated with Super ECL Plus (US EVERBRIGHT, Suzhou, China) and visualized in an ECL detection system (GE Healthcare, UK). The cytoplasmic protein ClpP was treated in the same way as an internal control. Band quantification was performed using the software ImageQuant TL.
On the technique in general: Immunoblotting shows a protein as a band on a membrane.

Test [7] relates to S. aureus USA300. In words: Adherence of S. aureus to immobilized fibrinogen. The test is classed as cell-based. To be noted: WT S. aureus treated with 200 µM orientin. How it is done:
The S. aureus USA300 was grown in BHI broth for 12 h and then diluted (1:100) in fresh BHI containing different concentrations of orientin, then continued to culture until an OD600 reached 0.5. The ∆srtA mutant was cultured under the same conditions as a positive control. Subsequently, the bacterial culture was added to a 96-well plate previously coated with bovine fibrinogen (20 µg/mL). Then, the sample was incubated for 2 h at 37°C, and 25% (v/v) formaldehyde was added to fix the adherent bacterial cells for 30 min after discarding the suspension. The formaldehyde was removed, and the plate was washed twice with PBS, following which, crystal violet was added to stain the cells for 20 min. The wells were gently washed with PBS and dried, and the OD value at 570 nm was measured.

In test [8] the target is T2, SrtA (Staphylococcus aureus, UniProt Q2FV99).
T2 construct: 6xHis (N); made in house; host or cells: E. coli BL21(DE3), pET28a
In words: FRET assay of SrtA inhibition (cleavage of Abz-LPATG-Dap(Dnp)-NH2). The test is classed as biochemical, S. aureus USA300. How it is done:
Fluorescence resonance energy transfer (FRET) was detected the activity of orientin against SrtA, as previously described. The reaction mixture (300 µL) consisted of the reaction buffer (50 mM Tris-HCl, 5 mM CaCl2, 150 mM NaCl, pH 7.5), 4 µM purified SrtA, and various concentrations of orientin (0–200 µM). The sample was incubated at 37°C for 1 h, followed by the addition of substrate peptide (10 μM). After incubation for another hour at 37°C, the fluorescence intensity value was detected at the excitation and emission wavelengths of 350 nm and 495 nm, respectively.

Test [9] addresses T3, WT-SrtA (Staphylococcus aureus, UniProt Q2FV99).
T3 construct: 6xHis (N); made in house; host or cells: E. coli BL21(DE3), pET28a
In words: Fluorescence quenching assay, WT-SrtA. The format is binding, S. aureus USA300. How it is done: as §1, §2

The test system of test [10] is S. aureus internalization into A549 cells. In words: Invasion assay of S. aureus into A549 cells. The test is classed as cell-based. To be noted: S. aureus treated with 100 µM orientin, vs untreated WT, P < 0.001. How it is done: The A549 cells were routinely sub-cultured at 37°C with 5% CO2. Cells in the logarithmic growth phase were seeded in a 24-well plate at a density of 2.5 × 10^5 per well and cultured for 20 h. S. aureus was mixed with orientin ranging from 0 to 100 µM and cultured at 37°C until an OD600 of 1.0 was reached. Then, the cell culture medium was discarded, and the cells were resuspended in DMEM medium. After that, a bacterial suspension containing 2 × 10^7 CFU/mL was added to each well. After incubation for 2 h, 300 µg/mL gentamicin was added to stop the invasion. Then, the cells were lysed after washing with sterile PBS and spread on BHI agar plates to calculate the number of colonies in each sample.

Test [11] has as its target T2, SrtA. Description: Reversible inhibition assay of SrtA. The settings on record: SrtA incubated with 10-fold IC50 of orientin, then diluted. The format is biochemical, S. aureus USA300. How it is done:
The 10-fold IC50 concentration of orientin was incubated with 100 µL of SrtA (150 µM) for 1 h at 37°C, followed by the addition of 9.9 mL reaction buffer. Then, 190 µL of the mixture was added to each well, and substrate peptide (10 μL) was added until a final concentration of 10 μM was achieved. A multifunctional microplate reader was used to record the fluorescence intensity at 350 nm for excitation and 495 nm for emission.

Test [12] has as its system S. aureus. In words: Pneumonia model experiment. The format is in vivo, C57BL/6 J mice. The settings on record: mice. How it is done:
The pneumonia model was induced as previously described in 7-week-old female C57BL/6 J mice. For survival experiments, a group of 10 mice was infected with 30 µL of S. aureus culture (2 × 10^8 CFUs) via the intranasal route. An hour after infection, the mice were intraperitoneally injected with orientin (100 mg/kg) at intervals of 12 h. Similarly, mice in the control group were injected with sterile PBS containing 0.5% DMSO. The mice were monitored every 12 h for 96 h after administration to calculate the survival rate. For estimation of the bacterial count in the lung tissue and histopathological analysis, the mice were infected with 30 µL (1 × 10^8 CFUs) of S. aureus cultures, and the infection was allowed to progress for 2 d. The mice were then sacrificed, and the lungs were collected, weighed, and homogenized. Then, appropriate dilutions were plated on BHI-agar plates until a single colony appeared and counted. The lung tissues of mice in each group were aseptically separated and fixed in 10% formalin. The lung tissue sections were observed under an optical microscope after conventional hematoxylin and eosin (H&E) staining.

For test [13], the system named is S. aureus USA300. Description: Growth curve assay. The format is cell-based. To be noted: 200 µM orientin, growth curve in BHI. How it is done:
as §3

Test [14] deals with T4, C184A (Staphylococcus aureus, UniProt Q2FV99, C184A).
T4 construct: 6xHis (N); made in house; host or cells: E. coli BL21(DE3), pET28a
In words: Fluorescence quenching assay, SrtA mutant C184A. The test is classed as binding, S. aureus USA300. How it is done: as §1, §2

Broadly, the Kd is the free concentration of one partner at which half of the binding sites on the other are occupied at equilibrium, for simple one-to-one binding. A high value points to weaker binding. A word on the MIC: it is the smallest concentration in the dilution series that meets the test's criterion for growth inhibition. Read a high MIC as a need for much substance. By IC50 is commonly meant the concentration at which inhibition is half-maximal. Lower therefore signals higher potency.

Regarding `O=c1cc(-c2ccc(O)c(O)c2)oc2c([C@@H]3O[C@H](CO)[C@@H](O)[C@H](O)[C@H]3O)c(O)cc(O)c12` [orientin], the results for the Kd in test [1], in test [9] and in [14] were 23.5 µM, 14 µM and 32.1 µM, respectively. The KA in test [2] is 5.37* 1 × 10^4 l/mol. The “relative activity (fluorescence of FITC-IgG bound to SpA)” value in [3] came out at 37.32 ± 1.84%. The same molecule displayed an MIC in test [4] greater than 512 µg/mL. For the same molecule, the biofilm biomass in test [5] was determined as 31.90 ± 0.25%. The “effect on the expression of SrtA” value in [6] is listed as “not to affect the expression of SrtA”. In [7], the “adhesion of S. aureus to fibrinogen” value is listed as 33.10 ± 1.41%. Moreover, the IC50 in test [8] is 50.4 ± 0.51 µM. The “ability of S. aureus to invade A549 cells” value in test [10] was “decreased significantly”. In addition, the “reversibility of SrtA inhibition” value in [11] is “reversible inhibitor”. Besides, the “activity of SrtA recovered (relative activity)” value in test [11] (untreated SrtA = 100% activity) was 84.77 ± 1.28% and 84.77%. In test [12] (100 mg/kg orientin, 2 d after infection, vs untreated group, P < 0.001), the “number of viable S. aureus in the lung tissue” value is given as “significantly reduced”. In test [12] (100 mg/kg orientin, H&E staining), the lung histopathology entry is reported as “inflammatory symptoms were significantly reduced”. The molecule also gave a survival rate in test [12] (lethal dose of S. aureus intranasal, 100 mg/kg orientin intraperitoneally at intervals of 12 h, within 72 h) of 60%. For the same molecule, in test [13], the “effect on S. aureus growth” value is given as “little inhibitory effect”.
